Publication PMC5855875, “Teixobactin analogues reveal enduracididine to be non-essential for highly potent antibacterial activity and lipid II binding” (Chemical Science, 2017)
Converted amounts (≈) assume the structure as drawn. Bridge positions count the residues as written; N and C are the ends. Square brackets hold non-standard residues; d marks the D form. Peptide text beside a SMILES is read from it. d(aIle) = CC[C@H](C)[C@@H](N)C(=O)O; dNMeF = CN[C@H](Cc1ccccc1)C(=O)O

Legend:
[1] = Lipid II TLC binding assay; conditions: peptide : lipid II 2 : 1; 50 mM Tris/HCl, pH 7.5, 30 min, room temperature; three independent experiments
Description: X. Complex formation of teixobactin with lipid II and geranyl pyrophosphate Complex formation of teixobactin analogues 8 (Ala10-teixobactin) and 16 (Arg10-teixobactin) with lipid II and geranyl pyrophosphate was performed using TLC as described previously.7 Binding of teixobactin to lipid II and geranyl pyrophosphate was analysed by incubating 30 µL of 2 nmol of each precursor with 2 or 4 nmoles of teixobactin in 50 mM Tris/HCl, pH 7.5, for 30 min at room temperature. Complex formation was analysed by extracting unbound precursors from the reaction mixture with 30 µL n- butanol/6M pyridine acetate (pH 4.2) (2:1; vol/vol) followed by TLC analysis of the organic layer using chloroform/methanol/water/ammonia (88:48:10:1, v/v/v/v) as the solvent and detection of lipid/phosphate containing precursors by phosphomolybdic acid staining. The TLC figures represent the results obtained through thr ee independent experiments.
Figure S76 : Binding of teixobactin analogues 8 (Ala10-teixobactin ) and 16 (Arg10-teixobactin) with lipid II using the protocols described in literature .7 Partial binding is observed when the ratio of lipid II to the analogue is 1:1 (indicated by lighter spots on the TLC) and complete binding is observed when the ratio of lipid II to the analogue is 1:2 in case of analogue 16 and 1:4 in case of analogue 8 (indicated […]
(also on this page, place not known: polyso rbate vancomycin , concentr ation 80 . wer e µ l (10 1-105 10 10 previously n - TL C three S76: (Ala10-teixobactin) literature.7 Lipid II Lipid II: Compound 8 = 1:1 Lipid II: Compound 16 = 1:1 Lipid II: Compound 8 = 1:2 Lipid II: Compound 16 = 1:2 Lipid II: Compound 8 = 1:4)

[2] = NMR titration with geranyl pyrophosphate (lipid II mimic); assay type: binding
Description: In order to evaluate target binding, we have performed the lipid II TLC binding assay[2] with Ala10-teixobactin. This assay provides qualitative binding data of Ala10-teixobactin with lipid II. […] Therefore, in order better understand the target binding of teixobactin analogues in a quantitative manner, extensive NMR studies (Fig. 6) on Ala10-teixobactin and geranyl pyrophosphate were performed.
This can occur due to intermediate exchange on the NMR time-scale, and therefore cooperative binding is not an obvious choice.

[3] = 1H DOSY at each titration point
[4] = tested on: MRSA ATCC 33591; experiment: microbe, parasite or virus in culture; conditions: ATCC 33591, 24 h
[5] = tested on: M. smegmatis ATCC 607; experiment: microbe, parasite or virus in culture; conditions: ATCC 607, 72 h
Description: were grown in Mueller Hinton broth (Oxoid) in triplicate. All incubations were at 37°C. Dilutions were carried out in triplicate. 100 µl of autoclaved Mueller Hinton broth was added to wells 2-12 in a 96-well plate. 200 µl of the peptide was added to well one at a concentration of 256 µg/mL. 100µl of peptide in well one was taken up and pipetted into well two. The mixture was then mixed via pipetting before 100µl was taken up and pipetted into well three. This process was repeated up to well 11. Once […]
peptide present. Thus, the concentrations (in µg/mL) were: 256, 128, 64, 32, 16, 8, 4, 2, 1, 0.5, 0.25 and no peptide present. Each well was then inoculated with 100µl of bacteria that had been diluted to an […]
This was repeated three times. The 96-well plates were then incubated at 37°C for 24 hours. The MIC was determined to be the lowest concentration at which there was no growth visible. […]
was repeated at an altered initial concentration of 64 µg/ml. Therefore, the new concentrations for MIC […]
Middlebrook 7H9 broth (SIGMA) supplemented to 5% Middlebrook ADC (SIGMA) growth

[6] = tested on: VRE 1: VRE ATCC 700802; experiment: organism not typed
Description: (§1) VIII. MIC testing (extended panel)
(§2) Bacterial cultures were grown overnight i n Mueller-Hinton Agar (MHA) plates and adjusted to a final concentration of 10 5 – 106 CFU/ml. 100 µl of inoculum in Meuller -Hinton broth (MHB) was mixed with equal volume of peptides (dissolved in MHB) at 2x their concentration in a 96 well plate. In parallel experiments, MIC values were determined in the media containing polysorbate 80 (0 .002%, v/v) to […]
(§3) prevent non-specific adsorption of the peptides to plastic surfaces. The final peptides concentrations […]
(§4) Positive and negative controls contained 200 µl of inoculum without any peptide dissolved in broth, respectively. The 96 well plates were then incubated at 37 °C for 24 h. […]
(§5) 80. Strain information: MRSA 1: MRSA ATCC 700699, MRSA 2: MRSA DR 42412 (sputum), MRSA
(§6) 3: MRSA DM21455 (eye). […] Staphylococcus aureus ATCC

[7] = tested on: VRE 2: VRE ATCC 29212; experiment: organism not typed
Description: as §1, §2, §3, §4, §5, §6

[8] = tested on: MRSA 2: MRSA DR 42412 (sputum); experiment: microbe, parasite or virus in culture
Description: as §1, §2, §3, §4, §5, §6

[9] = tested on: MRSA 3: MRSA DM21455 (eye); experiment: microbe, parasite or virus in culture
Description: as §1, §2, §3
(§7) Positive and negative controls contained 200 µl of inoculum without any peptide dissolved in broth, respectively. The 96 well plates were then incubated at 37 °C for 24 h.
(§8) All the experiments were performed in two independent duplicates and the MIC was determined as the […]
(§9) Minimum bactericidal concentration
(§10) The lowest concentration in which no visible colonies could be detected was taken as the MBC.
as §5, §6

[10] = tested on: Staphylococcus aureus ATCC 29213; experiment: microbe, parasite or virus in culture
Description: as §1, §2, §3, §7, §8, §9, §10, §5, §6

[11] = tested on: MRSA 1: MRSA ATCC 700699; experiment: microbe, parasite or virus in culture
Description: as §1, §2, §3, §7, §8, §9, §10, §5, §6

SMILES: CC[C@H](C)[C@H](NC(=O)[C@@H](Cc1ccccc1)NC)C(=O)N[C@@H](CO)C(=O)N[C@H](CCC(N)=O)C(=O)N[C@@H](C(=O)N[C@H](C(=O)N[C@@H](CO)C(=O)N[C@H]1C(=O)N[C@@H](C)C(=O)N[C@@H](C)C(=O)N[C@@H]([C@@H](C)CC)C(=O)O[C@H]1C)[C@@H](C)CC)[C@@H](C)CC [Compound 8, Ala10-teixobactin] (H-[dNMeF]IS[dQ][d(aIle)]IS[dT]AAI; ester 8-C)
- lipid II spot on TLC [1]: a small amount of lipid II was still visible on TLC
- Kd ([2]; 2 Ile Hα, NMR titration of geranyl pyrophosphate): 348 ± 18 µM
- Kd ([2]; 3 Ser Hα, NMR titration of geranyl pyrophosphate): 503 ± 8 µM
- Kd ([2]; 4 D-Gln Hα, NMR titration of geranyl pyrophosphate): 507 ± 2 µM
- Kd ([2]; 5 D-Ile Hα, NMR titration of geranyl pyrophosphate): 483 ± 4 µM
- Kd ([2]; 7 Ser Hα, NMR titration of geranyl pyrophosphate): 125 ± 3 µM
- Kd ([2]; 8 D-Thr Hα, NMR titration of geranyl pyrophosphate): 204 ± 3 µM
- Kd ([2]; 9 Ala Hα, NMR titration of geranyl pyrophosphate): 394 ± 4 µM
- Kd ([2]; 10 Ala Hα, NMR titration of geranyl pyrophosphate): 314 ± 3 µM
- Kd ([2]; 11 Ile Hα, NMR titration of geranyl pyrophosphate): 391 ± 4 µM
- Kd ([2]; Net (Total), overall binding by PCA): 138 ± 5 µM
- aggregation in presence of geranyl pyrophosphate (diffusion coefficient) [3]: no aggregation occurred
- MIC [4]: 1–2 μg mL^–1
- MIC [5]: 1–2 μg mL^–1
- MIC ([6]; ATCC 700802, 24 h): 4 μg mL^–1
- MIC (without polysorbate 80) ([6]; ATCC 700802, 24 h): 8 µg/mL (≈ 6.9 µM)
- MIC (with polysorbate 80) ([6]; VRE 1, MHB containing polysorbate 80 (0.002%, v/v), 37 °C, 24 h): 4 µg/mL (≈ 3.45 µM)
- MIC ([7]; ATCC 29212, 24 h): 4 μg mL^–1
- MIC (without polysorbate 80) ([7]; ATCC 29212, 24 h): 8 µg/mL (≈ 6.9 µM)
- MIC (with polysorbate 80) ([7]; VRE 2, MHB containing polysorbate 80 (0.002%, v/v), 37 °C, 24 h): 4 µg/mL (≈ 3.45 µM)
- MIC ([8]; 2: DR 42412 (sputum, 24 h)): 1 μg mL^–1
- MIC (without polysorbate 80) ([8]; 2: DR 42412 (sputum, 24 h)): 4 µg/mL (≈ 3.45 µM)
- MBC ([8]; MRSA 2 (MRSA DR 42412), plated on MHA, 37 °C, 24 h): 4 μg mL^–1
- MIC (with polysorbate 80) ([8]; MRSA 2, MHB containing polysorbate 80 (0.002%, v/v), 37 °C, 24 h): 1 µg/mL (≈ 0.863 µM)
- MIC ([9]; 3: DM21455 (eye, 24 h)): 1 μg mL^–1
- MIC (without polysorbate 80) ([9]; 3: DM21455 (eye, 24 h)): 4 µg/mL (≈ 3.45 µM)
- MBC ([9]; MRSA 3 (MRSA DM21455), plated on MHA, 37 °C, 24 h): 2 μg mL^–1
- MIC (with polysorbate 80) ([9]; MRSA 3, MHB containing polysorbate 80 (0.002%, v/v), 37 °C, 24 h): 1 µg/mL (≈ 0.863 µM)
- MIC (without polysorbate 80) ([10]; ATCC 29213, 24 h): 4 µg/mL (≈ 3.45 µM)
- MIC (with polysorbate 80) ([10]; S. aureus ATCC 29213, MHB containing polysorbate 80 (0.002%, v/v), 37 °C, 24 h): 1 µg/mL (≈ 0.863 µM)
- MBC ([10]; Staphylococcus aureus ATCC 29213, plated on MHA, 37 °C, 24 h): 2 μg mL^–1
- MIC ([11]; ATCC 700699, 24 h): 4 μg mL^–1
- MIC (without polysorbate 80) ([11]; ATCC 700699, 24 h): 8 µg/mL (≈ 6.9 µM)
- MBC ([11]; MRSA 1 (MRSA ATCC 700699), plated on MHA, 37 °C, 24 h): 16 μg mL^–1
- MIC (with polysorbate 80) ([11]; MRSA 1, MHB containing polysorbate 80 (0.002%, v/v), 37 °C, 24 h, two independent duplicates): 4 µg/mL (≈ 3.45 µM)
